Reference: EP0089139A2, “Antibiotics, their preparation and use” (BEECHAM GROUP PLC, priority 1982, dated 1983)
≈ marks a conversion by molar mass, not a printed value. Like-named read-outs stand apart in the source and are kept apart here.

Legend:
Test in all cases: standard MIC test
Assay type in all cases: cell-based
[1] = system: Escherichia coli 0111
Source text: (§1) In a standard MIC test the following data were obtained.

[2] = system: Salmonella typhimurium CT10; details: Salmonella enterica
Source text: as §1

[3] = system: Staphylococcus aureus Russell
Source text: as §1

[4] = system: E.coli JT39; details: Escherichia coli
Source text: as §1

## C[C@H](O)[C@@H]1C(=O)N2C(C(=O)[O-])=C(Sc3ncccn3)[C@H](C)[C@@H]12.[Na+] (racemic) [Example 16, Sodium (4RS,5RS,6RS)-4-methyl-6-[(1SR)-1-hydroxyethyl]-3-(pyrimidin-2-ylthio)-7-oxo-1-azabicyclo[3.2.0]hept-2-ene-2-carboxylate]
[1]
  MIC: 1.6 µg/mL
[2]; TYPHIMURIUM
  MIC: 1.6 µg/mL
[3]; Staphylococcus aureus
  MIC: 0.4 µg/mL

## C[C@@H](O)[C@H]1C(=O)N2C(C(=O)O)=C(Sc3ncccn3)[C@H](C)[C@H]12 (racemic) [Example 40]
[2]; Salmonella typhimurium CT10, read-out: MIC
  MIC: 6.2 µg/mL (≈ 19.3 µM)
[3]; Staphylococcus aureus Russell, read-out: MIC
  MIC: 0.4 µg/mL (≈ 1.24 µM)
[4]; E.coli JT39, read-out: M.I.C
  MIC: 1.6 µg/mL (≈ 4.98 µM)

## C[C@@H]1C(Sc2ncccn2)=C(C(=O)[O-])N2C(=O)[C@H]([C@@H](C)O)[C@@H]12.[Na+] [Example 30, Sodium (4S,5S,6S)-4-methyl-6-[(1R)-1-hydroxyethyl]-3-(pyrimidin-2-ylthio)-7-oxo-1-azabicyclo [3.2.0] hept-2-ene-2-carboxylate]
[2]; TYPHIMURIUM
  MIC: 3.1 µg/mL
[3]; Staphylococcus aureus
  MIC: 0.8 µg/mL
[4]; JT39
  MIC: 0.8 µg/mL
